US10214710B2, “Intercalated bleach compositions, related methods of manufacture and use” (The Clorox Company, priority 2013, dated 2019)

Columns and labels:
[1] = Differential scanning calorimetry (DSC) thermodynamic stability and adjuvant compatibility; format: physicochemical
[2] = Relative ratings of solid hypochlorite bleach products; details: relative rating
[3] = Humidity stability, storage at 80° F. and 80% relative humidity; format: physicochemical
Protocol: In addition to the stability testing described above, the magnesium intercalated bleach compositions were tested for their resistance to humidity (i.e., their ability to resist degradation upon exposure to humidity). The results were compared with the humidity stability of alternative solid hypochlorite releasing products, specifically dibasic magnesium hypochlorite and a mixture of calcium hypochlorite and magnesium oxide. […] As shown, the initial weight percent hypochlorite was measured. Some samples were stored open, while others were stored closed, and the weight percentage of remaining hypochlorite was measured after the 2 month storage.
Two MIB samples were tested.

[4] = pH buffering and hypochlorite release on HCl addition; format: physicochemical
Protocol: The buffering characteristics of the MIB compositions, as well as the ability to accelerate release of hypochlorite through addition of an acid were tested. It is believed that the MgO and/or Mg(OH)2 component present within the intercalated bleach compound acts to buffer the pH to a preferred region (e.g., about 8 to about 11.5) for enhanced hypochlorite stability. FIG. 4A plots the pH profile over time as hydrochloric acid (HCl) is added to the MIB aqueous solution at periodic intervals.
FIG. 4B plots the concentration of hypochlorite in solution (ppm of OCl) as a function of how many millimoles of HCl are added.
FIGS. 5A-5B plot similar data as described above with respect to FIGS. 4A-4B, but for a dibasic magnesium hypochlorite composition including 34% available chlorine by weight. […] As such, the dibasic magnesium hypochlorite is not capable of maintaining a relatively high pH for the solution, as are the MIB compositions. Such improved buffering capacity (i.e., the ability to maintain a higher pH for longer) greatly improves the stability of the bleach composition.

Compound	Bleach Stability [2]	Moisture Tolerance [2]	Solution Clarity [2]	also measured
[Ca+2].[O-]Cl.[O-]Cl [Calcium hypochlorite, calcium hypochlorite]	3	3	3	energy given off in exothermic decomposition ([1]; FIG. 7B): 401 J/g; decomposition reaction temperature ([1]; endothermic for MIB, exothermic for calcium hypochlorite): about 212 °C
O=C1CN(Cl)C(=O)N1Cl [Dichlorohydantoin]	5	1	1	–
[Li+].[O-]Cl [Li(OCl)2, lithium hypochlorite]	1	3	5	–
O=c1nc([O-])n(Cl)c(=O)n1Cl.[Na+] [sodium dichloroisocyanurate]	–	–	–	exothermic decomposition reactions ([1]; temperature range of 10° C. to 200° C., FIG. 7C): no exothermic decomposition reactions
Mg(OCl)2.2Mg(OH)2 [dibasic magnesium hypochlorite]	–	–	–	hypochlorite remaining, open sample ([3]; 2 months, 80° F., 80% relative humidity, stored open): ~0 % by weight; initial hypochlorite concentration ([3]; before the 2 month storage, FIG. 3A): about 25 % by weight; hypochlorite (bleach) release as a function of HCl added ([4]; FIG. 4B / 5B): not significantly aided by acid addition; pH (buffering) recovery after HCl addition ([4]; HCl added at periodic intervals, FIG. 4A / 5A): significantly slower and less complete
Trichloromelamine	–	3	1	–
sodium hypochlorite phosphate adduct [Na(OCl)2 phosphate adduct]	1	3	5	–
